Holding throughout (assay): NCI anticancer screen, dose series, 48 h
Assay [1] has as its system HT29 colon.
Assay [2] relates to SW-620 colon.
For assay [3], the system named is NCI-H23 lung.
Assay [4] relates to A549 NSCLC.
Assay [5] deals with SF-295 CNS.
For assay [6], the system named is KM12 colon.
The test system of assay [7] is SNB-75 CNS.
Assay [8] concerns 786-0 renal.
The test system of assay [9] is HL-60(TB) leukemia.
The subject of assay [10] is SNB-19 CNS.

TGI and GI50 data for eleven compounds are collected here from PubChem BioAssay (NCI).

Several values for one entry are separate records, joined by “and”; a condition that tells them apart may be missing. Equal entries are not always repeated.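 Grown in 96-well plates, cells were treated for 48 hours with each compound at five concentrations. Insufficient inhibition: endpoint recorded as highest concentration tested. GI50 is the concentration that inhibits growth by half. TGI marks complete inhibition of growth.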

Consider `COC(=O)[C@@]12C(=O)C=CC(=O)C1C1C(=CC2C)OC2OC3(CCCCC3)OC21` (some centres undefined), for which the TGI stood at 44.9 µM in assay [1]; 37.4 µM in [2]; 39.9 µM in [3]; 36.3 µM in [4]; 32.9 µM in assay [5]; 36.4 µM in assay [6]. In addition, the TGI amounted to 33.2 µM in [7], 32.4 µM in assay [8], 15.7 µM in [9] and 31.9 µM in assay [10].
With `CNC(=S)/N=C(\N)N(C)C`, the TGI in assay [1] is over 100 µM; in [2] it was over 100 µM; in assay [3], over 10 µM; in assay [4], over 100 µM; in [5], over 100 µM; in assay [6] it was over 100 µM. Also, the TGI in assay [7], in assay [8], in assay [9] and in assay [10] was over 100 µM throughout.
For `Nc1ccccc1/C(O)=C1/CCOC1=O`, the TGI in assay [1], in assay [2], in [3], in assay [4], in [5] and in [6] was over 100 µM throughout. For the same compound, the TGI in [7], in assay [8], in [9] and in assay [10] was over 100 µM throughout.
As for `COc1ccc(C2=C(Cl)c3cc(OC)c(OC)cc3C2Cl)cc1` (centres undefined), the TGI was 28.8 µM in [1]; 32.9 µM in assay [2]; over 54.5 µM in assay [3]; 36.5 µM in assay [4]; 34.1 µM in assay [5]; 26.4 µM in [6]. For the same compound, the TGI in assay [7] is 8.46 µM; in assay [8], 28.6 µM; in assay [9] it was 18.1 µM; in assay [10] it was 39.5 µM.
As for `CN(C)CCC1(C2=CCCC2)CC/C(=C\c2ccc(Cl)cc2)C1=O` (centres undefined), the TGI in [1] is 8.35 µM; in [2], 24.2 µM; in assay [3], 29.3 µM; in assay [4], 26.9 µM; in assay [5] it was 20.8 µM; in assay [6], 23.6 µM. Further, the TGI in [7] turned out to be 20.4 µM; in assay [8], 15.2 µM; in assay [9], 3.91 µM; in [10], 24.1 µM.
Turning to `CCOC(=O)/C(C)=C(/O)C(=O)OCC`, the TGI in assay [1], in [2], in [3], in assay [4], in [5] and in assay [6] was over 100 µM in each case. The TGI in [7], in [8], in assay [9] and in [10] was over 100 µM throughout.
As for `CN1CCN(CCCNc2nc3ccc(Oc4ccc(NC(=O)Nc5cc(C(F)(F)F)ccc5F)cc4)cc3[nH]2)CC1`, the GI50 in [1] was 4.09 µM; in assay [2] it was 4.35 µM; in assay [3] it was 4.03 µM; in assay [4], 4.31 µM; in assay [5], 3.67 µM; in [6] it was 3.44 µM. The GI50 is 5.14 µM in [7], 5.26 µM in assay [8], 5.2 µM in [9] and 3.99 µM in assay [10]. Also, the TGI in assay [1] came out at 7.93 µM; in assay [2], 7.79 µM; in assay [3], 7.9 µM; in assay [4], 8.08 µM; in assay [5], 7.98 µM; in assay [6], 6.74 µM. Moreover, the TGI was found to be 13.2 µM in assay [7], 11.9 µM in [8], 10.3 µM in [9] and 7.42 µM in [10].
With `c1ccc(Sc2ccc(Cc3nc4cc5ccccc5cc4[nH]3)cc2)cc1`, the GI50 in assay [1] is 8.54 µM; in [2] it was 8.38 µM; in assay [3] it was 7.46 µM; in assay [4], 2.33 µM; in assay [5], 2.65 µM; in assay [6] it was 2.21 µM. Also, the GI50 in [7] was over 66.5 µM; in assay [8], 4.77 µM; in assay [9], 76.4 µM; in [10], 8.89 µM. Besides, the TGI in assay [1] is over 100 µM; in assay [2], over 67.6 µM; in assay [3], 36.1 µM; in assay [4], over 61.4 µM; in assay [5] it was 34.7 µM; in assay [6] it was 46.2 µM. Moreover, the TGI was over 100 µM in assay [7], over 63.8 µM in [8], over 100 µM in [9] and over 100 µM in assay [10].
For the compound `CC1=CC(=O)C=CC1=O`, the GI50 in [1] was 16.4 µM and 26.9 µM; in [2], 5.31 µM; in [3] it was 26.6 µM and 20.5 µM; in assay [4] it was 79.4 µM and 24.9 µM; in [5], 50.3 µM and 22.7 µM; in [6], 14.1 µM and 16.5 µM. The GI50 was 3.02 µM and 11.5 µM in [7]; 19.3 µM and 19.1 µM in assay [8]; 2.37 µM and 3.51 µM in assay [9]; 36.1 µM in assay [10]. Moreover, the TGI in [1] is 40.9 µM and 69.6 µM; in assay [2], 20.8 µM; in [3], 60 µM; in assay [4], 66.8 µM; in assay [5], 64.3 µM; in assay [6], 27.7 µM and 32.1 µM. Further, the TGI was 24.8 µM in assay [7]; 33.8 µM and 34.2 µM in [8]; 89.4 µM in assay [10].
With `O=C(CC(=O)n1nc(-c2ccccc2)c(N=Nc2ccc(Cl)cc2)c1-c1ccccc1)Nc1ccc(Cl)cc1`, the TGI in assay [1] is over 59.7 µM; in assay [2] it was over 62.6 µM; in [3] it was over 100 µM; in assay [4] it was over 60.6 µM; in assay [5] it was over 100 µM; in assay [6], over 100 µM. In addition, the TGI in assay [7] is over 100 µM; in assay [8] it was over 61.1 µM; in [9], over 100 µM; in [10] it was over 100 µM.
As for `CC1(C)C(=O)/C(=C\c2cccnc2)C[C@]2(C)[C@H]3CC[C@@H]4[C@H]5[C@H](C(=O)/C=C/c6cccnc6)CC[C@]5(C(=O)O)CC[C@@]4(C)[C@]3(C)CC[C@@H]12`, the GI50 is 3.09 µM in [1]; 2.79 µM in assay [2]; 2.06 µM in [3]; 2.14 µM in assay [4]; 2.22 µM in assay [5]; 1.73 µM in assay [6]. Moreover, the GI50 was 4.01 µM in assay [7], 2.36 µM in assay [8], 1.95 µM in [9] and 2.34 µM in [10]. For the same compound, the TGI came out at 10.8 µM in assay [1]; 10.3 µM in [2]; 4.87 µM in assay [3]; 5.11 µM in assay [4]; 5.59 µM in [5]; 3.64 µM in assay [6]. The TGI in [7] is 44.2 µM; in assay [8], 5.41 µM; in [9], 5.27 µM; in [10], 5.69 µM.
